Experiments:
rat = assay: Low-intensity tail flick test (rat); assay type: in vivo; conditions: po, peroral
Method: Method II. Low-Intensity Tail Flick Test (Rat)
In the low-intensity tail flick test, the determination of the antinociceptive effect of the compounds according to the invention towards an acute noxious thermal stimulus is carried out by measuring the withdrawal reflex of the rat tail (tail flick) in response to a radiant heat beam (analgesia meter; model 2011 of the company Rhema Labortechnik, Hofheim, Germany) according to the method described by D'Amour and Smith (J. Pharm. Exp. Ther. 72, 74 79 (1941). To this end, the rats were placed in a plexiglass restrainer, and a low-intensity radiant heat beam (48° C.) was focused onto the dorsal surface of the tail root. The stimulus intensity was adjusted to result in a mean pre-drug control withdrawal latency of about 7 s, thus also allowing a supraspinal modulation of the spinally mediated acute nociceptive reflex. A cutoff time of 30 s was applied to avoid tissue damage. Male Sprague-Dawley rats (Janvier, Le Genest St. Isle, Frankreich) with weights of 200-250 g were used. 10 rats were used per group. Before administration of a compound according to the invention, the animals were pre-tested twice in the course of five minutes and the mean of these measurements was calculated as the pre-test mean. The antinociceptive effect was determined at 20, 40 and 60 min after peroral compound administration. The antinociceptive effect was calculated based on the increase in the tail withdrawal latency according to the following formula and is expressed as percentage of the maximum possible effect (MPE [%]): MPE=[(T1−T0)/(T2−T0)]*100
In this, T0 is the control latency time before and T1 the latency time after administration of the compound, T2 is the cutoff time and MPE is the maximum possible effect. Employing variant analysis (repeated measures ANOVA) allowed testing of statistically significant differences between the compounds according to the invention and the vehicle group. The significance level was set to p≦0.05. To determine the dose dependency, the particular compound according to the invention was administered in 3-5 logarithmically increasing doses, including a threshold dose and a maximum effective dose, and the ED50 values were determined with the aid of regression analysis. The ED50 calculation was performed at the time of maximum efficacy (usually 20 min after administration of the compounds).

KCNQ2/3 channels = target: T1, KCNQ2/3 channels (Homo sapiens, UniProt O43525+O43526); assay: Fluorescence assay using a voltage sensitive dye (fluorimetry); assay type: cell-based; conditions: CHO-K1 cells expressing KCNQ2/3; for Emax: CHO-K1, plateau effect relative to saturated retigabine (50 μM) = 100%, negative values = antagonistic, read-out: Fluorimetry % efficacy (retigabine = 100%); for EC50: IC50 where % efficacy is negative, read-out: Fluorimetry EC50/IC50
T1 construct: expressed in transfected cells

[1] = MPE = % of maximum possible effect

T1 sequence (O43526 whole entry): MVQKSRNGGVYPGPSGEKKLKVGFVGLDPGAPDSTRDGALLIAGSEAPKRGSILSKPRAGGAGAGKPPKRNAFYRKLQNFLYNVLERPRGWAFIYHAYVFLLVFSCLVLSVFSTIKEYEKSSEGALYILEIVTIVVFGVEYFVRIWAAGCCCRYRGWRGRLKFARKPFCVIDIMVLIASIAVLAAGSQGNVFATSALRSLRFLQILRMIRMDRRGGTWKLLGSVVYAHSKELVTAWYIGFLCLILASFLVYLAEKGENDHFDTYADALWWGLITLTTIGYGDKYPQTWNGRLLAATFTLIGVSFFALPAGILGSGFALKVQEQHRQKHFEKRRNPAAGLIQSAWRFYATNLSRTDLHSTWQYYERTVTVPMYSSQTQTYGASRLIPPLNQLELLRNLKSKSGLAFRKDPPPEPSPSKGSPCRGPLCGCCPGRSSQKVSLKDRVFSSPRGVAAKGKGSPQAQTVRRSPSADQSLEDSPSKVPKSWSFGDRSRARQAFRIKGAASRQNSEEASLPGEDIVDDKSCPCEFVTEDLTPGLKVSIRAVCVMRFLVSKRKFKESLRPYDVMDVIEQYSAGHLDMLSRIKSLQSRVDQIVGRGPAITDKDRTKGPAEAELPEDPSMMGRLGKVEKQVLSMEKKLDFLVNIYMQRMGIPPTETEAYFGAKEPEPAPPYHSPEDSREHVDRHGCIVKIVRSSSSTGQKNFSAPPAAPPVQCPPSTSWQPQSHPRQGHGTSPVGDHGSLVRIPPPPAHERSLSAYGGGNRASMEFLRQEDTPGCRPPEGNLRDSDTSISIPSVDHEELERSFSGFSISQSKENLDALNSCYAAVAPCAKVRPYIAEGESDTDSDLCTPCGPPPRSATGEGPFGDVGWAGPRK
T1 sequence (O43525 whole entry): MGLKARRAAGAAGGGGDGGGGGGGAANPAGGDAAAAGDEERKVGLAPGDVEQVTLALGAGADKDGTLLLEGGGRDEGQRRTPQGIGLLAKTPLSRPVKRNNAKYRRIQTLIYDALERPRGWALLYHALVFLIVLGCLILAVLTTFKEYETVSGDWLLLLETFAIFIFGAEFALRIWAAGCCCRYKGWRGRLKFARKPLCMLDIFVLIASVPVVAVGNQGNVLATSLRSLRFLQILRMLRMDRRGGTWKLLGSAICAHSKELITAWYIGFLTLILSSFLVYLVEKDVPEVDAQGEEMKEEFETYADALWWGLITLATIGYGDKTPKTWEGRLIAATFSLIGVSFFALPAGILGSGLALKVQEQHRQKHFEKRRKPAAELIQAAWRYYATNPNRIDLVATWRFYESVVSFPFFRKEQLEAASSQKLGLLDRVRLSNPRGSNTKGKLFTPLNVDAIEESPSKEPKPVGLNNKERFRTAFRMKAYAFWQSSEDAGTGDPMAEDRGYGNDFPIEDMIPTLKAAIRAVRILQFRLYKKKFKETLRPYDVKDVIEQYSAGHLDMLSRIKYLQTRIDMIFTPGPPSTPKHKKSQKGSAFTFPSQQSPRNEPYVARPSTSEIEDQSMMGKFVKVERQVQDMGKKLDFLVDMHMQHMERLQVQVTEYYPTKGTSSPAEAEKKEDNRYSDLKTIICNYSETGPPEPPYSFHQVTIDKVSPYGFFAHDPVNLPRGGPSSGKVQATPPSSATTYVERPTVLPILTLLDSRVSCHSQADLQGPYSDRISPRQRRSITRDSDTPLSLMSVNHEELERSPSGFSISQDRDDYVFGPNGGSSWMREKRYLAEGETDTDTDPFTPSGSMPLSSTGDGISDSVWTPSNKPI

Compound | Emax (KCNQ2/3 channels) | EC50 (KCNQ2/3 channels) | inhibition in vivo at 4.64 mg/kg (rat; dose 4.64 mg/kg, MPE = % of maximum possible effect) | ED50 (rat; ED50 at time of maximum efficacy) | inhibition in vivo at 10 mg/kg (rat; [1]) | inhibition in vivo at 6.81 mg/kg (rat; dose 6.81 mg/kg, MPE = % of maximum possible effect)
CCSc1nc(N2CCOCC2)cc(C)c1C(=O)NCc1cccc(F)c1 [Example 2, 2-ethylsulfanyl-N-[(3-fluorophenyl)-methyl]-4-methyl-6-morpholin-4-yl-pyridine-3-carboxylic acid amide] | 171% | 134 nM | – | 4.3 mg/kg | – | –
CCSc1nc(N2CCOCC2)cc(C)c1C(=O)NCc1ccc(F)cc1 [Example 4, 2-Ethylsulfanyl-N-[(4-fluorophenyl)-methyl]-4-methyl-6-morpholin-4-yl-pyridine-3-carboxylic acid amide] | 158% | 124 nM | – | – | 94% | –
CCOc1nc(N2CCOCC2)cc(C)c1C(=O)NCc1cccc(F)c1 [Example 38, 2-Ethoxy-N-[(3-fluorophenyl)-methyl]-4-methyl-6-morpholin-4-yl-pyridine-3-carboxylic acid amide] | 144% | 219 nM | – | – | 61% | –
CSc1nc(N2CCOCC2)cc(C)c1C(=O)NCc1cccc(F)c1 [Example 40, N-[(3-Fluorophenyl)-methyl]-4-methyl-2-methylsulfanyl-6-morpholin-4-yl-pyridine-3-carboxylic acid amide] | 168% | 587 nM | – | – | 84% | –
CCSc1nc(N2CCOCC2)cc(C)c1C(=O)NCc1ccc(F)c(F)c1 [Example 41, N-[(3,4-Difluoro-phenyl)-methyl]-2-ethylsulfanyl-4-methyl-6-morpholin-4-yl-pyridine-3-carboxylic acid amide] | 169% | 69 nM | – | – | – | 92%
CCSc1nc(N2CCOCC2)cc(C)c1C(=O)NCCCC(C)C [Example 79, 2-Ethylsulfanyl-4-methyl-N-(4-methyl-pentyl)-6-morpholin-4-yl-pyridine-3-carboxylic acid amide] | 215% | 206 nM | – | – | 46% | –

The next lines start with results.

Emax (KCNQ2/3 channels) | EC50 (KCNQ2/3 channels) | Compound | inhibition in vivo at 4.64 mg/kg (rat; dose 4.64 mg/kg, MPE = % of maximum possible effect) | ED50 (rat; ED50 at time of maximum efficacy) | inhibition in vivo at 10 mg/kg (rat; [1]) | inhibition in vivo at 6.81 mg/kg (rat; dose 6.81 mg/kg, MPE = % of maximum possible effect)
160% | 56 nM | CCSc1nc(N2CCOCC2)cc(C)c1C(=O)NCc1cc(F)cc(F)c1 [Example 1, N-[(3,5-Difluoro-phenyl)-methyl]-2-ethylsulfanyl-4-methyl-6-morpholin-4-yl-pyridine-3-carboxylic acid amide] | 78% | – | – | –
176% | 181 nM | CCCc1nc(N2CCOCC2)cc(C)c1C(=O)NCc1cccc(F)c1 [Example 10, N-[(3-Fluorophenyl)-methyl]-4-methyl-6-morpholin-4-yl-2-propyl-pyridine-3-carboxylic acid amide] | – | – | 81% | –
155% | 736 nM | COc1nc(N2CCOCC2)cc(C)c1C(=O)NCc1cccc(F)c1 [Example 19, N-[(3-Fluorophenyl)-methyl]-2-methoxy-4-methyl-6-morpholin-4-yl-pyridine-3-carboxylic acid amide] | – | – | 79% | –
244% | 42 nM | CCSc1nc(N2CCOCC2)cc(C)c1C(=O)NCCCC(C)(C)C [Example 67, N-(4,4-Dimethyl-pentyl)-2-ethylsulfanyl-4-methyl-6-morpholin-4-yl-pyridine-3-carboxylic acid amide] | – | – | 100% | –

— US9168259B2 (GRÜNENTHAL GMBH, priority 2010, dated 2015)
